# Results from paper PMC7377376, “Drug targeting CYP2E1 for the treatment of early-stage alcoholic steatohepatitis” (PLoS ONE, 2020).
# Tests used:
# [1] = tested on: ethanol-fed Wistar rats; assay: Serum liver enzyme activities of ethanol-fed rats; assay type: in vivo, rat; settings: for reduction of ethanol effect on γ-GT activity: UDCA 40 mg/kg; for reduction of ethanol effect on ALT activity: average over 0.4/4/40 mg/kg b.w.; for γ-GT activity above the reference value of healthy animals: highest concentration
# From the text: (§1) A total of 68 female Wistar rats (Institute of Pharmacology and Biochemistry Breeding House, Minsk, Belarus) aged 80–90 days and weighting 180–200 g at the beginning of the experiments were used in the study. Each rat group (n = 6–8) was housed in a separate cage and had free access to the liquid diet during the full study period. Prior to the study, the animals were habituated for seven days to the cage conditions and experimental handling. The rats were maintained in a controlled experimental environment (20–25°C, 40–50% humidity, 12 h light per day, room with a 12-h light/dark cycle).
# (§2) Rats were divided into ten groups characterized by the diet and the test compounds (S1 Table). Group 1 is the first control group in which a normal solid standard diet was fed for 12 weeks. All other groups received the liquid Lieber-DeCarli (LDC) diet (S2 Table), which combines food and drink in a liquid manner. It was prepared by ssniff Spezialdiäten GmbH, Soest. The addition of maltodextrin to this diet should compensate the pure caloric effect of ethanol, whereby 1.77 g maltodextrin replaces 1 g ethanol. The calorie value of both the control and ethanol diets was the same: 35% calories from fat, 11% from carbohydrates, 18% from protein and 36% from ethanol.
# (§3) In the first two weeks rats of all groups–with the exception of group 1 –were fed with LDC diet plus maltodextrin in an appropriate amount to adapt the animals to the liquid diet. Group 2 is the second control group in which the isocaloric diet was administered for further 10 weeks until the end of the experiment. […] The test compounds I-ol, I-an and UDCA were dissolved in a 0.8% aqueous HPMC gel to obtain the appropriate concentrations: (1) I-ol with 0.4, 4 and 40 mg/kg b. w. (2) I-an with 0.4, 4 and 40 mg/kg b. w. (3) UDCA with 40 mg/kg b. w. Rats of group 2 and 3 received only HPMC as a placebo. The LDC diets were fed ad libitum and their intake per cage was controlled daily. The corresponding bottles were stored in the cages from 08:00 a. m. until 06:00 p. m. and replaced by drinking water bottles overnight until 08:00 a. m. in the next morning. Every day at the same time, the test compounds or only HPMC were administered intragastrically by oral gavage with an administration volume of 2 ml/kg b. w. After ten weeks of treatment, the rats were anesthetized with an intraperitoneal injection of a 5% pentobarbital solution and then killed by aorta scarification. Their livers were dissected and liver pieces frozen and stored in liquid nitrogen. A part of the liver was fixed for histological investigations. Blood was collected before sacrifice, centrifuged for serum preparation and finally stored in liquid nitrogen.
# The serum marker enzyme activities, alanine aminotransferase (ALT), aspartate aminotransferase (AST), alkaline phosphatase (AP) and gamma-glutamyltransferase (γ-GT) as well as triglycerides and bilirubin were measured according to manufacturer’s instructions using standard commercial kits from Lachema (PLIVA-Lachema Diagnostika, Czech Republic). Serum concentrations of leptin, adiponectin and TNF-alpha were analyzed using commercial ELISA test kits: BioCat GmbH (Heidelberg, German) for adiponectin and TNF-alpha, BioVendor Laboratory Medicine Inc. (Brno, Czech Republic) for leptin. Insulin serum concentration was determined by radioimmunoassay using the commercially available kit RIO-insulin-PG-J125 (IBOCH, Minsk, Belarus). Glucose serum concentration was determined by the Accu-Check Active blood glucose testing system from Roche-Diagnostics GmbH (Mannheim, Germany).
# [2] = tested on: ethanol-fed Wistar rats; assay: Oxidative stress parameters in liver of ethanol-fed rats (Lieber-DeCarli diet); assay type: in vivo; design: GR activity reduction compared to disease group / increase of ethanol effect on GR activity / hydrogen peroxide amount reduced below the reference value: concentration or dose not given beside the values; settings: rat liver; for reduction of ethanol effect on hydrogen peroxide: I-ol, I-an 0.4/4/40 mg/kg b.w., UDCA 40 mg/kg; for reduction of ethanol effect on hydrogen peroxide / hydrogen peroxide decrease compared to disease group / reduction of ethanol effect on reduced glutathione (GSH): oral; for reduction of ethanol effect on hydrogen peroxide / hydrogen peroxide decrease compared to disease group / reduction of ethanol effect on reduced glutathione (GSH) / SRA decrease compared to disease group: 10 weeks; for increase of ethanol effect on GR activity: as worded in Fig 3 legend; for GSH elevation compared to disease group / SRA decrease compared to disease group: average over 0.4/4/40 mg/kg b.w.; for SRA decrease compared to disease group: daily oral gavage; for reduction of ethanol effect on glutathione reductase (GR) activity: average over doses (UDCA 40 mg/kg); for GPx activity below the reference value in healthy animals: highest concentration (UDCA 40 mg/kg b.w.); for reduction of ethanol effect on glutathione peroxidase (GPx) activity: on average
# From the text: as §1, §2, §3
# The generation of reactive oxygen species (ROS) in rat liver was evaluated by NADPH-induced chemiluminescence with amplification by both luminol for the detection of superoxide (SRA) radical anion and lucigenin detecting hydrogen peroxide as described by Müller-Peddinhaus. In short, liver pieces were homogenized in 0.1 M sodium phosphate buffer pH 7.4. The homogenates were centrifuged at 9,000 x g at 0°C and aliquots were used for the measurement. Reduced glutathione (GSH) was determined by a modified Ellman`s method: 0.2 ml of the liver homogenates’ supernatant were added to 1.6 ml of an EDTA-/sodium […] solution. The absorbance was read at […] against blanks. GSH solution—prepared immediately before use—served as a standard. End products of the lipid peroxidation reaction are equivalent to TBARS (thiobarbituric acid-reacting substances) and their concentration was measured according to Buege et al.. The enzymatic activity of cytosolic glutathione peroxidase (GPx) and microsomal glutathione reductase (GR) were determined as described by Buko at al.. Catalase activity was evaluated by spectrophotometric measurement using hydrogen peroxide as a substrate according to Beers et al.. […]
# [3] = First pharmacokinetic study of I-ol, calculated blood concentration; assay type: in vivo; settings: rat
# Description: Following these studies, we performed a single pharmacokinetic study with I-ol to get evidence for a possible further development of this lead compound. The complete study is summarized in the Word document " First pharmacokinetic study of I-ol".
# Assuming a maximum oral bioavailability of 0.1 percent for I-ol, the following comparison results:
# The peroral intake of 0.4 mg I-ol/kg body weight of the rat leads to a blood concentration of 6.3 ng I-ol/ml, which corresponds to 26.3 nmol I-ol/l. An average body weight of 230 g and a blood volume of 14.5 ml was assumed. The molecular mass of I-ol is 240 g/mol. An oral bioavailability of 0.1% was used despite reasonable doubt about the finality of this amount.
# [4] = average over doses (UDCA 40 mg/kg)
# [5] = average over 0.4/4/40 mg/kg b.w. (UDCA 40 mg/kg)
SMILES,reduction of ethanol effect on γ-GT activity [1] [%],reduction of ethanol effect on ALT activity [1] [%],"ALT activity decrease compared to disease group [1, 4] [%]","AST activity decrease compared to disease group [1, 4] [%]","reduction of ethanol effect on AST activity [1, 4] [%]","γ-GT activity decrease compared to disease group [1, 4] [%]",γ-GT activity above the reference value of healthy animals [1] [%],AST activity above the reference value of healthy animals ([1]; lowest concentration) [%],GR activity reduction compared to disease group [2] [%],reduction of ethanol effect on hydrogen peroxide [2],increase of ethanol effect on GR activity [2] [%],GSH elevation compared to disease group [2] [%],"hydrogen peroxide decrease compared to disease group [2, 5] [%]","reduction of ethanol effect on reduced glutathione (GSH) [2, 5] [%]",SRA decrease compared to disease group [2] [%],GPx activity elevation compared to disease group ([2]; average over doses) [%],reduction of ethanol effect on glutathione reductase (GR) activity [2] [%],TBARS level below the reference values of healthy animals ([2]; highest concentration) [%],GPx activity below the reference value in healthy animals [2] [%],reduction of ethanol effect on glutathione peroxidase (GPx) activity [2],further results
"CCCCCCCCCCCCn1ccnc1 [I-an, 1-Imidazolyldodecane]",60,59,24,11,48,33,12,6,11,completely reduced,43,94,78,55,43,10,43,31,10,completely reduced,"AP activity decrease compared to disease group [1, 4]: 29%; reduction of ethanol effect on alkaline phosphatase (AP) activity ([1]; on average (UDCA 40 mg/kg)): 96%; hydrogen peroxide amount reduced below the reference value [2]: 56%; reduction of ethanol effect on TBARS [2, 5]: 93%; TBARS decrease compared to disease group ([2]; average over doses): 40%; GSH value above the reference value of healthy animals ([2]; highest concentration): 2%"
OCCCCCCCCCCCCn1ccnc1 [I-ol],68,70,29,14,60,37,28,6,10,completely reduced,41,62,75,36,36,17,41,11,8,completely reduced,"ALT activity (in words) ([1]; lowest concentration): complete restoration of the basic activity; AP activity decrease compared to disease group ([1]; lowest concentration): 27%; reduction of ethanol effect on alkaline phosphatase (AP) activity ([1]; lowest concentration): 87%; maximum oral bioavailability ([3]; oral, assumed value from first pharmacokinetic study): ≤ 0.1%; calculated blood concentration ([3]; peroral 0.4 mg/kg body weight, bioavailability 0.1% assumed): 26.3 nmol I-ol/l; calculated blood concentration ([3]; peroral 0.4 mg/kg body weight, bioavailability 0.1%, blood volume 14.5 ml, body weight 230 g assumed): 6.3 ng I-ol/ml; calculated blood concentration ([3]; peroral 4 mg/kg, bioavailability 0.1% assumed): 263 nmol/L; calculated blood concentration ([3]; peroral 40 mg/kg, bioavailability 0.1% assumed): 2630 nmol/L; TBARS decrease compared to disease group ([2]; highest concentration): 50%"
